Key:
Type in all cases: cell-based
[1] = system: Human Bladder Cancer Cell Line (T24); assay: Tumor cell proliferation assay (MTT), T24; settings: for inhibition at 10 µM: concentration of 10^−5 mol/L, preliminary screening, 72 hours, read-out: Inhibition rate % T24; for IC50: secondary screening, 48 hours
Excerpt: (§1) The assay used generally is the blue tetrazolium bromide (MTT) method. […] The amount of formazan can be detected by the microplate reader through the absorption value at 570 nm. The amount of formazan product generated is proportional to the number of living cells in the sample, so the OD value may reflect the number of living cells and the ability of a test drug to inhibit or kill cells. The MTT assay may be used in determining the ability of different compounds of the present invention to inhibit one or more cancer cells proliferation. Similar assays can be designed along the same lines for any cancer cell using techniques well known in the art.
(§2) The assay used generally is the blue tetrazolium bromide (MTT) method. […] Intracellular purple formazan salt crystals can be solved in DMSO and the absorption value at 570 nm is detected by the microplate reader, then the number of living cells can be detected indirectly. So MTT assay may be used to determine the ability of a compound of the present invention to inhibit cell proliferation. Similar assays can be designed along the same lines for any cancer cell using techniques well known in the art.
2.2.7 Human Bladder Cancer Cell Line (T24);
The cells of 2.2.6, 2.2.7 cultured in RPMI 1640 medium containing 12% fetal bovine serum in the condition of 37° C., 5% CO2.
(§3) 2.3.1 Cell seeding: Trypsinize the cell by 0.05% trypsin-EDTA and add RPMI 1640 medium (DMEM or 5A) containing 12% calf serum. Count the number, then dilute to 1.67×10^4/ml. Add 180 ul/well to the 96 well plate (3000 cells/well).
(§4) 2.3.2 Culture: cells are incubated for 24 hours at 37° C. under 5% CO2.
(§5) 2.3.3 Preliminary screening: The compounds are firstly diluted to 0.1 mol/L with DMSO, and then diluted to three concentrations of 10^−5 mol/L, 10^−6 mol/L and 10^−7 mol/L. Add 20 ul test compounds to the 96 well plate and incubate for 72 hours. Each group has three parallel wells and all experiments repeat three times. Each inhibition ratio is calculated, then an average value of three times is taken as the measured value. 2.3.4 Staining 2.3.4.1 Attached cell: add 20 ul/well MTT to the 96-well plates; incubate for 4 hours in the incubator. Pour out the culture medium in the well and add 100 ul/well DMSO. Shake the plate for 5 min. 2.3.4.2 Suspension cell: add 20 ul/well MTT to the 96-well plates; incubate for 4 hours in the incubator. Add 50 ul/well 20% SDS and incubate for overnight in the incubator. 2.3.5 Reading the plates: read the absorbance A570-A630 with the Infinite M200 microtiter plate reader. Calculate the inhibition ratio of the test compounds. 2.3.6 Secondary screening: the compounds whose inhibition ratio is greater than 50% at the concentrations of 10^−5 mol/L in the preliminary screening will be picked out for Secondary screening. Dilute these compounds to ten concentrations: 10^−5 mol/L, 0.5×10^−5 mol/L, 10^−6 mol/L, 0.8×10^−6 mol/L, 0.6×10^−6 mol/L, 0.4×10^−6 mol/L, 0.2×10^−6 mol/L, 10^−7 mol/L, 0.8×10^−7 mol/L and 0.4×10^−7 mol/L. Add 20 ul test compound solution to the 96 well plate and incubate for 48 hours. Each group has three parallel wells and all experiments repeat for three times. Read the plates and calculate the inhibition ratio according to the preliminary screening method. 2.3.7 Calculate the Inhibition Ratio of Cell Proliferation and the IC50
(§6) According to the inhibition ratio of cell proliferation at the different concentrations of the compound, inhibition ratio of 50% of the test compound is calculated through the logarithm of the concentration of the compound with the Logit [I] linear regression, and an average value of three times is taken as the measured value of a sample.

[2] = system: Human Hepatocellular Carcinoma Cell Line (HEPG2); assay: Tumor cell proliferation assay (MTT), HEPG2; settings: for inhibition at 10 µM: concentration of 10^−5 mol/L, preliminary screening, 72 hours, read-out: Inhibition rate % HEPG2; for IC50: secondary screening, 48 hours
Excerpt: as §1, §2
2.2.8 Human Hepatocellular Carcinoma Cell Line (HEPG2);
(§7) The cells of 2.2.8, 2.2.9 cultured in DMEM/High glucose medium containing 12% calf serum in the condition of 37° C., 5% CO2.
as §3, §4, §5, §6

[3] = system: Human Colon Cancer Cell Line (HCT 116); assay: Tumor cell proliferation assay (MTT), HCT116; settings: concentration of 10^−5 mol/L, preliminary screening, 72 hours, read-out: Inhibition rate % HCT116
Excerpt: as §1, §2
2.2.12 Human Colon Cancer Cell Line (HCT 116);
The cells of 2.2.11, 2.2.12, 2.2.13 were cultured in MC COYS 5-A medium containing 12% fetal bovine serum in the condition of 37° C., 5% CO2.
as §3, §4, §5, §6

[4] = system: Human Leukemia Line (K562); assay: Tumor cell proliferation assay (MTT), K562; settings: for inhibition at 10 µM: concentration of 10^−5 mol/L, preliminary screening, 72 hours, read-out: Inhibition rate % K562; for IC50: secondary screening, 48 hours
Excerpt: as §1, §2
2.2.3 Human Leukemia Line (K562)
The cells of the 2.2.1, 2.2.2, 2.2.3, 2.2.4, 2.2.5 cultured with RPMI 1640 containing 12% calf serum in the condition of 37° C., 5% CO2.
as §3, §4, §5, §6

[5] = system: Human Breast Cancer Cell Line (MCF-7); assay: Tumor cell proliferation assay (MTT), MCF-7; settings: for inhibition at 10 µM: MCF7, concentration of 10^−5 mol/L, preliminary screening, 72 hours, read-out: Inhibition rate % MCF-7; for IC50: MCF7, secondary screening, 48 hours
Excerpt: as §1, §2
2.2.9 Human Breast Cancer Cell Line (MCF-7);
as §7, §3, §4, §5, §6

Row | SMILES | inhibition at 10 µM [1] [%] | inhibition at 10 µM [2] [%] | inhibition at 10 µM [3] [%] | inhibition at 10 µM [4] [%] | inhibition at 10 µM [5] [%] | IC50 [1] [µM] | IC50 [2] [µM] | IC50 [4] [µM] | IC50 [5] [µM]
1 | Cc1[nH]c2c(c1C(=O)N1CCN(C)CC1)CCC/C2=C1/C(=O)Nc2ccc(F)cc21 [I-14, 2-methyl-3-(4-methylpiperazine-1-carbonyl)-7-[1,2-dihydro-5-fluoro-2-oxo-3H-indol-(Z)-3-ylidene]-4,5,6,7-tetrahydro-1H-indole] | 34.4 | 30.4 | 22.1 | – | – | – | – | – | –
2 | Cc1[nH]c2c(c1C(=O)NCCO)CCC/C2=C1/C(=O)Nc2ccccc21 [I-8, N-(2-hydroxyethyl)-2-methyl-7-[1,2-dihydro-2-oxo-3H-indol-(Z)-3-ylidene]-4,5,6,7-tetrahydro-1H-indole-3-carboxamide] | 64.6 | 53.8 | 79.1 | 39.4 | 25.2 | – | – | – | –
3 | Cc1[nH]c2c(c1C(=O)NCC(O)CN1CCCCC1)CCC/C2=C1/C(=O)Nc2ccc(F)cc21 (stereo not shown) [I-74, N-(2-hydroxy-3-(piperidin-1-yl)propyl)-2-methyl-7-[1,2-dihydro-5-fluoro-2-oxo-3H-indol-(Z)-3-ylidene]-4,5,6,7-tetrahydro-1H-indole-3-carboxamide] | 98.7 | 84.9 | 99.9 | 95.1 | 70.7 | 2.64 | 7.22 | 0.93 | 7.01
4 | Cc1[nH]c2c(c1C(=O)NCCO)CCC/C2=C1/C(=O)Nc2ccc(F)cc21 [I-9, N-(2-hydroxyethyl)-2-methyl-7-[1,2-dihydro-5-fluoro-2-oxo-3H-indol-(Z)-3-ylidene]-4,5,6,7-tetrahydro-1H-indole-3-carboxamide] | 56.1 | 47.5 | 61.9 | – | – | – | – | – | –
5 | CCN(CC)CCNC(=O)c1c(C)[nH]c2c1CCC/C2=C1/C(=O)Nc2ccc(F)cc21 [I-2, N-(2-(diethylamino)ethyl)-2-methyl-7-[1,2-dihydro-5-fluoro-2-oxo-3H-indol-(Z)-3-ylidene]-4,5,6,7-tetrahydro-1H-indole-3-carboxamide] | 81.4 | 64 | 99.4 | 95.3 | 55.4 | 3.31 | 7.27 | 3.51 | 7.88
6 | CCN(CC)CCNC(=O)c1c(C)[nH]c2c1CCC/C2=C1/C(=O)Nc2ccccc21 [I-5, N-(2-(diethylamino)ethyl)-2-methyl-7-[1,2-dihydro-2-oxo-3H-indol-(Z)-3-ylidene]-4,5,6,7-tetrahydro-1H-indole-3-carboxamide] | 74.5 | 64.6 | 99.9 | 93.3 | 50.5 | 3.56 | 7.73 | 2.94 | 6.94
7 | Cc1[nH]c2c(c1C(=O)NCC(O)CN1CCCCC1)CCC/C2=C1/C(=O)Nc2ccccc21 (stereo not shown) [I-73, N-(2-hydroxy-3-(piperidin-1-yl)propyl)-2-methyl-7-[1,2-dihydro-2-oxo-3H-indol-(Z)-3-ylidene]-4,5,6,7-tetrahydro-1H-indole-3-carboxamide] | 88.4 | 59.3 | 98.7 | 94.8 | 43.4 | 5.9 | 7.36 | 0.72 | –

From patent US8084621B2, “3-Pyrrolo[b]cyclohexylene-2-dihydroindolinone derivatives and uses thereof” (Jiangsu Simcere Pharmaceutical R&D Co. Ltd., priority 2006, dated 2011)
